Experimental data as given in US7622494B2, “Chemical compounds” (SmithKline Beecham Corporation, priority 2003, dated 2009).
Where a name gives a salt, the structure may show the parent alone.

These compounds were tested on episomal HPV-16 DNA in W12-20850 cells (assay: W-12 cellular assay (hybrid capture quantification of episomal HPV-16 DNA)). Details: Human papillomavirus 16, 96 h; W12-20850 cells, four days incubation, episomal HPV-16 DNA by hybrid capture, inhibition relative to untreated control cells; read-out: W-12.
Type: cell-based, HPV16
Protocol: Compounds of the current invention are believed useful in the treatment and/or prophylaxis of conditions and diseases associated with HPV infection. Activity mediated through HPV was determined using the following W-12 cellular assay.
The W12 cell line used contains HPV16 DNA and was derived from a low-grade cervical dysplasia tissue by Margaret Stanley and subsequently clonally selected by Paul Lambert (University of Wisconsin). One of these clones, W12-20850, contains 1000 copies of episomal HPV16 DNA and was used in the cell-based assay. W12-20850 cells were routinely cultured with a gamma-irradiated (6000 rads) feeder layer of 3T3 cells. Assays, however, were run in the absence of a 3T3 feeder layer. W12-20850 and 3T3 cells were routinely split when they were sub-confluent. W12-20850 were grown in W12 Medium which is constituted of 25% DMEM (Gibco BRL, Cat # 12430-047), 75% F12 Media (Gibco BRL, Cat # 11765-021) and 2.5% FBS. The additives include […] Adenine (Sigma, Cat # A-9795), […] Hydrocortisone (Calbiochem, Cat # 386698); 5.0 mg/ml Bovine Insulin (Sigma, Cat # I-1882), 8.4 ng/ml cholera toxin (Fluka, Cat # 26694) and 10 ng/ml EGF (Invitrogen, Cat # 13247-051). 3T3 cells were grown in DMEM containing 10% FBS. Cell lines were incubated at 37° C., in the presence of 5% CO2.
For the assay, W12-20850 cells were seeded into a 96 well plate-containing compound. Plates were incubated at 37° C. in the presence of 5% CO2, for four days. On the fourth day, cells were lysed and the amount of episomal. HPV-16 DNA was quantified using a non-radioactive hybrid capture technique with HPV-16 specific capture and detection probes. The percent inhibition relative to untreated control cells' was then determined.
The hybrid capture assay is run in a 96 well plate format. Hybridization plates (Nunc Maxisorb Cat # 450320) were coated with a mixture of capture probe and ReactiBind solution for at least 4 hours and then washed with 0.2×SSC, 0.05% Tween20 (SSCT) prior to blocking with […] of 0.2 N NaOH, 1% Igepal, 10 mg/ml hsDNA for 6-8 hours. The hybridization was carried out by mixing 27 μl of lysed cells with 45 μl of denatured detection probe in 6M guanidine isothiocyanate. To prevent evaporation, 50 μl of mineral oil was added to each well. The plate was then heated to 90° C. for 6.5 minutes and the hybridization continued at 42° C. overnight. Assay plates were washed 6 times with SSC/T. Anti-digoxigenin HRP-conjugated Ab (Boehringer Mannheim 1207733, 1:5000) was incubated in the wells for 30 min at room temperature and washed with PBS/0.05% Tween-20. SuperSignal LBA substrate (Pierce Cat # 37070) was added, and chemiluminescence was measured using Wallac 1420 Victor plate reader.
`C[C@@H](NC1CCCCc2c1[nH]c1ccc(Br)cc21)c1ccccc1` (stereo partly drawn) [Example 55, 2-Bromo-N-[(1R)-1-phenylethyl]-5,6,7,8,9,10-hexahydrocycloheota[b]indol-6-amine hydrochloride] gave an IC50 of 1000 nM. Compound `C[C@@H](N[C@@H]1CCc2c1[nH]c1ccc(Br)cc21)c1ccccc1` [Example 51, (3R)-7-Bromo-N-[(1R)-1-phenylethyl]-1,2,3,4-tetrahydrocyclooenta[b]indol-3-amine hydrochloride salt] has an IC50 of 122 nM. With `c1ccc2c(c1)CC(NC1CCCc3c1[nH]c1ccccc31)C2` (stereo not drawn) [Example 20, N-(2.3-Dihydro-1H-inden-2-yl)-2,3,4,9-tetrahydro-1H-carbazol-1-amine hydrochloride salt] the IC50 was 3300 nM. Compound `CC(=O)NC1CCCc2c1[nH]c1ccc(Br)cc21` (stereo not drawn) [Example 67, N-(6-Bromo-2,3,4,9-tetrahydro-1H-carbazol-1-yl)acetamide] has an IC50 of 13000 nM. Compound `c1ccc2c3c([nH]c2c1)C(NCc1ccc2c(c1)OCO2)CCC3` (stereo not drawn) [Example 25, N-(1.3-Benzodioxol-5-ylmethyl)-2,3,4,9-tetrahydro-1H-carbazol-1-amine hydrochloride salt] has an IC50 of 1500 nM.

Same assay, conditions: Human papillomavirus 16, W12-20850, 96 h, read-out: W-12
Work on `Cc1ccc2[nH]c3c(c2c1)CCC[C@@H]3N[C@@H](C)c1ccccc1` [Example 46, (1S)-6-Methyl-N-[(1S)-1-phenylethyl]-2,3,4,9-tetrahydro-1H-carbazol-1-amine hydrochloride salt] yielded an IC50 of 8600 nM. For `c1ccc(CNC2CCCc3c2[nH]c2ccccc32)cc1` (stereo not drawn) [Example 15, N-Benzyl-2,3,4,9-tetrahydrocarbazole-1-amine hydrochloride salt], the IC50 was 6600 nM. Work on `Brc1cccc2c3c([nH]c12)C(NCc1ccccc1)CCC3` (stereo not drawn) [Example 71, N-Benzyl-8-bromo-2,3,4,9-tetrahydro-1H-carbazol-1-amine hydrochloride] yielded an IC50 of 11400 nM. Work on `CCCNC1CCCc2c1[nH]c1ccccc21` (stereo not drawn) [Example 21, N-Propyl-2,3,4,9-tetrahydro-1H-carbazol-1-amine hydrochloride salt] yielded an IC50 of 40000 nM. Work on `Cn1c2c(c3cc(Br)ccc31)CCCC2NCCc1ccccc1` (stereo not drawn) [Example 38, 6-Bromo-9-methyl-N-(2-phenylethyl)-2,3,4,9-tetrahydro-1H-carbazol-1-amine hydrochloride salt] yielded an IC50 of 27000 nM. `C[C@H](N[C@@H]1CCCc2c1[nH]c1ccc(Br)cc21)c1ccccc1` [Example 36, (1R)-6-Bromo-N-[(1S)-1-phenylethyl]-2,3,4,9-tetrahydro-1H-carbazol-1-amine hydrochloride salt] showed an IC50 of 20 nM. Work on `Cc1ccc2[nH]c3c(c2c1)CCCC3NCCc1ccccc1` (stereo not drawn) [Example 40, 6-Methyl-N-(2-phenylethyl)-2,3,4,9-tetrahydro-1H-carbazol-1-amine hydrochloride salt] yielded an IC50 of 2700 nM. Compound `COc1ccc2[nH]c3c(c2c1)CCCC3NCc1ccccc1` (stereo not drawn) [Example 53, N-Benzyl-6-methoxy-2,3,4,9-tetrahydro-1H-carbazol-1-amine hydrochloride salt] has an IC50 of 7600 nM. Compound `CN(CCc1ccccc1)C1CCCc2c1[nH]c1ccc(Br)cc21` (stereo not drawn) [Example 37, 6-Bromo-N-methyl-N-(2-phenylethyl)-2,3,4,9-tetrahydro-1H-carbazol-1-amine hydrochloride salt] has an IC50 of 3000 nM. Work on `Brc1ccc2[nH]c3c(c2c1)CCC[C@H]3NC1Cc2ccccc2C1` [Example 27, (1R)-6-Bromo-N-(2,3-dihydro-1H-inden-2-yl)-2,3,4,9-tetrahydro-1H-carbazol-1-amine hydrochloride salt] yielded an IC50 of 57 nM. Work on `C[C@H](NC1CCCc2c1[nH]c1ccc(Br)cc21)c1ccccc1` (stereo partly drawn) [Example 34, 6-Bromo-N-[(1S)-1-phenylethyl]-2,3,4,9-tetrahydro-1H-carbazol-1-amine hydrochloride salt] yielded an IC50 of 290 nM. `C[C@@H](NC1CCCc2c1[nH]c1ccccc21)c1ccccc1` (stereo partly drawn) [Example 18, N-[(1R)-1-Phenylethyl]-2,3,4,9-tetrahydro-1H-carbazol-1-amine hydrochloride salt] gave an IC50 of 12300 nM. Work on `c1ccc(CCNC2CCCc3c2[nH]c2ccccc32)cc1` (stereo not drawn) [Example 17, N-(2-Phenylethyl)-2,3,4,9-tetrahydro-1H-carbazol-1-amine hydrochloride salt] yielded an IC50 of 7400 nM. Work on `C[C@@H](N[C@@H]1CCCc2c1[nH]c1ccc(Br)cc21)c1ccccc1` [Example 31, (1R)-6-bromo-N-[(1R)-1-phenylethyl]-2,3,4,9-tetrahydro-1 H-carbazol-1-amine hydrochloride salt] yielded an IC50 of 30 nM. In the case of `Fc1ccc(CNC2CCCc3c2[nH]c2ccc(Br)cc32)cc1` (stereo not drawn) [Example 57, 6-Bromo-N-(4-fluorobenzyl)-2,3,4,9-tetrahydro-1H-carbazol-1-amine hydrochloride], the IC50 is reported as 139 nM. In the case of `C[C@@H](NC1CCCc2c1[nH]c1ccc(C(F)(F)F)cc21)c1ccccc1` (stereo partly drawn) [Example 59, N-[(1R)-1-Phenylethyl]-6-(trifluoromethyl)-2,3,4,9-tetrahydro-1H-carbazol-1-amine hydrochloride], the IC50 is reported as 287 nM.
